Data on 1 compound can be found in patent US20110044969A1, “Antimicrobial Agents for the Treatment of Campylobacter Species in the Crop of a Bird” (NOFIMA MAT AS, priority 2008, published 2011).

This experiment concerns C. jejuni strain 484, strain 523 and strain 534. The conditions noted are these: pH 6.0 and 6.5; acid 0.1, 0.01, 0.001, 0.0001%; 48 hours at 42° C. microaerophilic; growth by spectrophotometer; all three strains.

Method: Three C. jejuni strains were compared in vitro for sensitivity for benzoic acid and sorbic acid at two different pH values. These strains were C. jejuni strain 484 (from poultry leg), C. jejuni strain 523 (from poultry faeces), and C. jejuni strain 534 (from poultry faeces). Different combinations of pH (6.0 and 6.5) and concentrations of the acids (0.1, 0.01, 0.001, and 0.0001%) were tested in Mueller-Hinton broth (MH) with supplement for Campylobacter (SR232E; Oxoid Ltd., Basingstoke, UK). The strains were incubated in microaerophilic atmosphere for 48 hours at 42° C., and growth was measured by spectrophotometer.
Three C. jejuni strains were tested for in vitro growth at different combinations of pH (6.0 and 6.5) and concentrations of sorbic- and benzoic acid (0.1, 0.01, 0.001, and 0.0001%).

For `C/C=C/C=C/C(=O)O` [sorbic acid], the “in vitro growth reduction of C. jejuni” value was “highest growth reduction”.
